The text below walks through data of patent US20090028795A1, “NOD1 as an Anti-Tumor Agent” (priority 2005, published 2009).

Experiment [1] concerns MCF-7 Blasto, MCF-7 C20 and MCF-7 C20/Nod1 tumors. In words: Xenograft tumor growth in SCID mice with estrogen pellets. The format is in vivo. On the procedure: (§1) FIG. 11A-D illustrate that the presence of Nod1 prevents tumor growth in SCID mice. FIG. 11A graphically illustrates the tumor volume in mice injected with MCF-7 C20 (left) and MCF-7 C20/Nod1 (right) cells as a function of time. The cells (3×10^6 cells/mouse) were injected into the flanks of female SCID mice. Tumor size was measured once a week and volume was determined according to the formula (PW2×L)/2. Each line represents tumor growth observed in one mouse (n=4). As illustrated, the tumor volume diminished in mice that received Nod1 expressing tumor cells (C20/Nod1). […] FIG. 11B graphically illustrates that implanting estrogen pellets into mice prior to injection of MCF-7 Blasto, MCF-7 C20 and MCF-7 C20/Nod1 cells (3×10^6 cells/mouse) increases tumor growth except when the tumor cells express Nod1 (the C20/Nod1 cells). […] The tumor volume was determined as described above. FIG. 11C graphically illustrates the tumor volume over time in mice injected with MCF-7 Blasto, MCF-7 C20 and MCF-7 RIP2ΔCARD cells. […] FIG. 11D graphically illustrates tumor cell growth as a function of estrogen concentration. […] MCF-7 Blasto, MCF-7 C20, MCF-7 C20/Nod1 and MCF-7 RIP2ΔCARD cells were exposed to increasing concentrations of 17β-estradiol, pulsed with ^3H-thimidine and cell growth was determined by liquid scintillation. Data are representative of at least 3 independent experiments.
Human xenografts in nude mice. MCF-7 Blasto, MCF-7 C20 and MCF-7 C20/Nod1 cells were trypsinized, washed once with PBS and resuspended to a concentration of 1.5×10^7/ml. Two hundred microliters of each suspension were inoculated subcutaneously into the flank of athymic SCID/SCID or SCID/Nod (non-obese diabetic) female mice. Tumor size was assessed once a week. Tumor volume was calculated.
In most studies, tumor formation by MCF-7 cells requires supplementation of estrogens for tumorigenesis in nude mice, even when cells are inoculated at high concentration. To further examine the role of estrogen in tumorigenesis, all three cell lines were injected into mice along with estrogen pellets (FIG. 11B). […]

Experiment [2] relates to MCF-7 C20 cells. In words: Propidium iodide exclusion cell death assay, Nod1-deficient MCF-7 C20 cells. In kind it is cell-based, human. To be noted: C20 cells, charcoal-treated serum, γTriDAP/CHX. The protocol: (§2) Cell viability assays. Propidium iodide exclusion assay: Cells were stimulated as indicated for 2 days. Subsequently, cells were harvested, washed twice in FACS buffer (PBS containing 1% FCS and 0.1% NaN3) and resuspended in propidium iodide (PI)-containing FACS buffer (4 ug/ml). The extent of cell death was analyzed with a FACSCalibur flow cytometer (Becton Dickinson, Mountain View, Calif.). DAPI staining: MCF-7 cells were plated in chamber slides, and stimulated for 2 days. Cells were washed with PBS and apoptotic nuclei were stained with 1 μg/ml DAPI (Sigma Chemical Co., St. Louis, Mo.). Cells were fixed in 4% paraformaldehyde and examined by fluorescence microscopy.
To further investigate the role of Nod1 in apoptosis, a variety of cell types were incubated with the Nod1 ligand, […] (γTriDAP), which specifically activates Nod1. The cell types tested included the parental MCF-7 cell line, the Nod1-deficient MCF-7C20 clone, and a cell line engineered to contain an additional human Nod1 allele (MCF-7Nod1) so that Nod1 was over-expressed. […] Cells were treated with γTriDAP in the presence or absence of cycloheximide (CHX) and cell death was then determined by propidium iodide staining and flow cytometry.

Experiment [3] deals with MCF-7 C20/Nod1 cells. The experiment can be described thus: Propidium iodide exclusion apoptosis assay, estrogen/tamoxifen studies. In kind it is cell-based, human.
Text: FIG. 12A-C illustrates that estrogen increases γTriDAP-induced apoptosis and tamoxifen inhibits γTriDAP-induced apoptosis in various MCF-7 tumor cell lines. FIG. 12A graphically illustrates the percent apoptosis in MCF-7 Blasto, MCF-7 C20 and MCF-7 C20/Nod1 cells cultured in increasing amounts or estrogen and either cycloheximide (CHX) or CHX plus γTriDAP (γTri). FIG. 12B graphically illustrates the percent apoptosis in MCF-7 Blasto, MCF-7 C20 and MCF-7 C20/Nod1 cells cultured in increasing amounts of tamoxifen and either cycloheximide (CHX) or CHX plus γTriDAP (γTri). For the estrogen studies, MCF-7 cells were cultured in charcoal-treated medium and stimulated with γTriDAP/CHX in the presence of increasing concentrations of estrogen (E2) and cell viability was measured by propidium iodide (PI) exclusion. For the tamoxifen studies, cells were treated with tamoxifen prior to addition of γTriDAP/CHX and cell viability measured by PI exclusion. […] Total protein extracts from MCF-7 Blasto, MCF-7 C20 and MCF-7 C20/Nod1 cells and from cells isolated from tumors were analyzed by immunoblotting using antibody against estrogen receptor (ERα), and ERK2 as loading control.
as §2
To determine whether the presence of estrogens modulates Nod1-induced apoptotic pathway, cells were cultured in medium containing charcoal-treated serum.

For experiment [4], the system named is MCF-7 Blasto, MCF-7 C20, MCF-7 C20/Nod1 and MCF-7 RIP2ΔCARD cells. The experiment can be described thus: Estrogen-induced proliferation (3H-thymidine) of MCF-7 cell lines. In kind it is cell-based, human. As to conditions: for proliferative response to added estrogen: grown in the absence of estrogen. On the procedure:
as §1
Retroviral transfections. The various genes used in this study were cloned into pMSCV-Blasto, pBabe-Puro or pBabe-Neo retroviral vectors. MCF-7 cells were stably transfected using available procedures. Briefly, amphotropic 293 cells were transfected with retroviral vectors encoding selected Nod1, Nod2 and other proteins. Twenty-four hours post-transfection, cells were incubated at 32° C. overnight to produce viral particles. Target cells were infected the next day with virus-containing 293 cell supernatants containing recombinant retroviral particles. […] Cells were harvested on glass fiber filters and radioactivity measured by liquid scintillation. […]

Experiment [5] has as its system MCF-7 Nod1 cells. In words: Propidium iodide exclusion cell death assay, MCF-7 cells over-expressing Nod1. In kind it is cell-based, human. To be noted: for effect on γTriDAP-induced cell death: caspase inhibitor 50 uM, 30 min before γTriDAP/CHX for 48 h; for effect on γTriDAP-induced apoptosis: inhibitor 100 uM, 30 min prior to γTriDAP/CHX for 48 h. The protocol:
as §2
(§3) To further investigate the role of Nod1 in apoptosis, a variety of cell types were incubated with the Nod1 ligand, […] (γTriDAP), which specifically activates Nod1. The cell types tested included the parental MCF-7 cell line, the Nod1-deficient MCF-7C20 clone, and a cell line engineered to contain an additional human Nod1 allele (MCF-7Nod1) so that Nod1 was over-expressed. To determine whether the resistance of C20 cells to γTriDAP-induced apoptosis resulted from the absence of Nod1, human Nod1 was stably expressed in MCF-7 C20 cells to produce Nod1-sufficient C20 cells (C20/Nod1). As another control, the parental MCF-7 cell line was transfected with an empty retroviral vector to generate MCF-7 Blasto cells. Cells were treated with γTriDAP in the presence or absence of cycloheximide (CHX) and cell death was then determined by propidium iodide staining and flow cytometry.

In experiment [6] the test system is MCF-7 and MCF-7 C20 cells. In words: Sensitivity to apoptotic stimuli, parental MCF-7 versus MCF-7 C20 cells. The format is cell-based, human. As to conditions: C20 compared with parental cells.
Text: FIG. 1A-C illustrates Nod1 involvement in TNF-induced apoptosis. FIG. 1A provides a schematic diagram of the mutated gene that gave rise to a TNFα-resistant phenotype, and was later identified as a Nod1 mutant bearing a blasticidine (blast) gene insertion. The cell line bearing this Nod1 mutation is the MCF7-C20 cell line. The insertion from the pDisrup retroviral construct was mapped to the Nod1 gene. The junction of blasticidine fused with the Nod1 gene occurred at the 3′ end of the Nod1 gene between leucine-rich region 8 (LRR8) and leucine-rich region 9 (LRR9). […] Cell extracts from MCF-7 parental (called “wt”) and MCF-7 C20 cells were prepared and either immunoprecipitated with a monoclonal anti-NOD1 antibody (upper panel) or directly loaded onto an SDS-PAGE gel (lower panel), then transferred to PVDF membranes. Blots were analyzed by immunoblotting using the same monoclonal anti-NOD1 antibody. […] MCF-7 and MCF-7 C20 cells were treated with increasing concentrations of TNF (0-40 ng/ml) for 20 h. Cell viability was determined by propidium iodide (PI) exclusion assay and flow cytometry.
as §2

The subject of experiment [7] is MCF-7 cells. The experiment can be described thus: Propidium iodide exclusion cell death assay, wild-type (parental/Blasto) MCF-7 cells. The format is cell-based, human. To be noted: wild type cells, agent alone. On the procedure:
as §2, §3

17β-estradiol [estrogen]: the tumor growth entry in experiment [1] (mice injected with MCF-7 Blasto cells, estrogen pellets) is listed as “tumors grew”; in experiment [1] (mice injected with MCF-7 C20 cells, estrogen pellets), “grew even larger”; in experiment [1] (mice that received MCF-7 C20/Nod1, estrogen pellets), “did not grow tumors”. Further, the effect upon apoptosis entry in experiment [2] is recorded as “little or no effect”. In experiment [3] (C20/Nod1 and Blasto cells, charcoal-treated serum, increasing estrogen), the “effect on γTriDAP-induced apoptosis” value is reported as “apoptosis increased in a dose-dependent manner”. Moreover, the “proliferative response to added estrogen” value is “strong proliferative response” in experiment [4] (MCF-C20 and MCF-7 RIP2ΔCARD cells); “neither the parental nor MCF-7 C20/Nod1 cell lines were stimulated to proliferate” in experiment [4] (parental and MCF-7 C20/Nod1 cells).

Take `COC(=O)CC(NC(=O)OC(C)(C)C)C(=O)CF` [Boc-D-FMK]: the “effect on γTriDAP-induced cell death” value in experiment [5] is “abrogated”.

Regarding `CC[C@@]1(O)C(=O)OCc2c1cc1n(c2=O)Cc2cc3ccccc3nc2-1` [camptothecin], the “sensitivity of MCF-7 C20 cells versus parental MCF-7 cells to induced cell death” value in experiment [6] is reported as “equally sensitive”.

In the case of `C[C@@H]1C[C@@H]([C@H](O)CC2CC(=O)NC(=O)C2)C(=O)[C@@H](C)C1` [cycloheximide], the “cell death / apoptosis” value in experiment [7] is listed as “No cell death”.

In the case of `COc1cccc2c1C(=O)c1c(O)c3c(c(O)c1C2=O)C[C@@](O)(C(=O)CO)C[C@@H]3O[C@H]1C[C@H](N)[C@H](O)[C@H](C)O1` [doxirubicin], in experiment [6], the “sensitivity of MCF-7 C20 cells versus parental MCF-7 cells to induced cell death” value is on record as “equally sensitive”.

On to `CC/C(=C(\c1ccccc1)c1ccc(OCCN(C)C)cc1)c1ccccc1` [tamoxifen], for which, in experiment [3] (MCF-7 cell lines treated prior to γTriDAP/CHX (FIG. 12B)), the “effect on γTriDAP-induced cell death” value was “partially blocked”. Moreover, the “effect on estrogen-induced proliferation” value in experiment [4] (MCF-7 C20 cells (data not shown)) was “blocked”.

For the molecule IETD, in experiment [5], the “effect on γTriDAP-induced apoptosis” value is listed as “marked inhibitory effects”.

In the case of TNFα, in experiment [6], the “sensitivity of MCF-7 C20 cells versus parental MCF-7 cells to induced cell death” value is listed as “significantly more resistant”.

Consider z-VAD-FMK, for which, in experiment [5], the “effect on γTriDAP-induced cell death” value is “abrogated” and the “effect on γTriDAP-induced apoptosis” value is “blocked γTriDAP-induced apoptosis nearly completely”.
